Test results as given in PMC2677215 (Biochemical Journal, 2009).

Target: T1, Physarum NOS form B (clone B+; physnosb) (Badhamia polycephala, UniProt A6XKZ6)
Experiment: radiometric citrulline NOS assay
Assay type: biochemical

Row | EC50 [µM] | SMILES
1 | 2.1 ± 1.6 | Cc1cc2nc3c(=O)[nH]c(=O)nc-3n(C[C@H](O)[C@H](O)[C@H](O)COP(=O)(O)OP(=O)(O)OC[C@H]3O[C@@H](n4cnc5c(N)ncnc54)[C@H](O)[C@@H]3O)c2cc1C [FAD]
2 | 0.2 ± 0.2 | Cc1cc2nc3c(=O)[nH]c(=O)nc-3n(C[C@H](O)[C@H](O)[C@H](O)COP(=O)(O)O)c2cc1C [FMN]
3 | 0.7 ± 0.1 | C[C@H](O)[C@H](O)[C@H]1CNc2nc(N)[nH]c(=O)c2N1 [H4-bip, 6R-5,6,7,8-tetrahydro-L-biopterin]
4 | 60.3 ± 13.8 | NC(=O)C1=CN([C@@H]2O[C@H](COP(=O)(O)OP(=O)(O)OC[C@H]3O[C@@H](n4cnc5c(N)ncnc54)[C@H](OP(=O)(O)O)[C@@H]3O)[C@@H](O)[C@H]2O)C=CC1 [NADPH]

Target: T2, Physarum NOS form A (clone A1; physnosa) (Badhamia polycephala, UniProt A6XKZ4)
Experiment: radiometric citrulline NOS assay
Assay type: biochemical

Row | IC50 [µM] | SMILES
5 | 81.3 ± 7.8 | CC(=N)NCCCC[C@H](N)C(=O)O [L-NIL, L-N6(1-iminoethyl)-lysine]
6 | 45.2 ± 23.5 | CNC(=N)NCCC[C@H](N)C(=O)O [L-NMMA, N^ω-methyl-L-arginine]

Row | SMILES | IC50 [µM]
7 | N=C(NCCC[C@H](N)C(=O)O)N[N+](=O)[O-] [L-NNA, N^ω-nitro-L-arginine] | 25.7 ± 10.7

Target: T2, Physarum NOS form A (clone A1; physnosa)
Experiment: radiometric citrulline NOS assay
Assay type: biochemical
Remark: another data set of the same source

Row | EC50 [µM] | SMILES
8 | 3.9 ± 1.6 | Cc1cc2nc3c(=O)[nH]c(=O)nc-3n(C[C@H](O)[C@H](O)[C@H](O)COP(=O)(O)OP(=O)(O)OC[C@H]3O[C@@H](n4cnc5c(N)ncnc54)[C@H](O)[C@@H]3O)c2cc1C [FAD]
9 | 1.7 ± 0.6 | Cc1cc2nc3c(=O)[nH]c(=O)nc-3n(C[C@H](O)[C@H](O)[C@H](O)COP(=O)(O)O)c2cc1C [FMN]
10 | 7.9 ± 1.2 | C[C@H](O)[C@H](O)[C@H]1CNc2nc(N)[nH]c(=O)c2N1 [H4-bip, 6R-5,6,7,8-tetrahydro-L-biopterin]
11 | 57.2 ± 6.5 | NC(=O)C1=CN([C@@H]2O[C@H](COP(=O)(O)OP(=O)(O)OC[C@H]3O[C@@H](n4cnc5c(N)ncnc54)[C@H](OP(=O)(O)O)[C@@H]3O)[C@@H](O)[C@H]2O)C=CC1 [NADPH]

Target: T1, Physarum NOS form B (clone B+; physnosb)
Experiment: radiometric citrulline NOS assay
Assay type: biochemical
Remark: another data set of the same source

Row | IC50 [µM] | SMILES
12 | 76.7 ± 4.3 | CC(=N)NCCCC[C@H](N)C(=O)O [L-NIL, L-N6(1-iminoethyl)-lysine]
13 | 44.3 ± 19.2 | CNC(=N)NCCC[C@H](N)C(=O)O [L-NMMA, N^ω-methyl-L-arginine]

Row | SMILES | IC50 [µM]
14 | N=C(NCCC[C@H](N)C(=O)O)N[N+](=O)[O-] [L-NNA, N^ω-nitro-L-arginine] | 39.8 ± 20.3
